Data reported in ChEMBL document CHEMBL4673394, “Discovery of a Series of Pyrazinone RORγ Antagonists and Identification of the Clinical Candidate BI 730357” (ACS Med Chem Lett, 2021).

How the values were obtained:
[1] = Oral bioavailability in Wistar Han rat at 3 mg/kg measured at 15 to 1440 mins; type: ADME, organism-based; conditions: in vivo, time 15-1440 min
[2] = Clearance in Wistar Han rat at 1 mg/kg, iv measured at 5 to 1440 mins relative to hepatic blood flow; type: ADME, organism-based; conditions: in vivo, time 5-1440 min
[3] = Permeability in human Caco2 cells; type: ADME, cell-based; conditions: Caco-2, read-out: permeability

bioavailability [1] [%] | CL [2] [%] | Papp [3] [×10⁻⁶ cm/s] | Structure (SMILES)
20 | 42 |  | CC[C@@H](C)n1c(=O)c(NCc2ccc(S(=O)(=O)CC)cn2)nc2cnc(-c3c(OC)ncnc3C3CC3)nc21
 | 56 |  | CCS(=O)(=O)c1ccc(CNc2nc3cnc(-c4c(OC)ncnc4C4CC4)nc3n([C@@H](C)C3CC3)c2=O)nc1
70 | 32 |  | CCS(=O)(=O)c1ccc(CNc2nc3cnc(-c4c(OC)ncnc4C4CC4)nc3n(C(C)C)c2=O)nc1
 | 10 |  | CCS(=O)(=O)c1ccc(CNc2nc3cnc(-c4c(OC)ncnc4C4CC4)nc3n([C@@H](C)C(F)(F)F)c2=O)nc1
 | 44 |  | CCS(=O)(=O)c1ccc(CNc2nc3cnc(-c4c(OC)ncnc4C4CC4)nc3n([C@H](C)C3CC3)c2=O)nc1
70 | 16 | 110 | Cc1ncnc(C2CC2)c1-c1ncc2nc(NCc3ccc(S(C)(=O)=O)cn3)c(=O)n([C@@H](C)C3CC3)c2n1
61 | 19 |  | CCS(=O)(=O)c1ccc(CNc2nc3cnc(-c4c(C)ncnc4C4CC4)nc3n([C@@H](C)C3CC3)c2=O)cn1
 | 29 |  | CCS(=O)(=O)c1cnc(CNc2nc3cnc(-c4c(C)ncnc4C4CC4)nc3n([C@@H](C)C3CC3)c2=O)nc1
 | 57 |  | CNS(=O)(=O)c1ccc(CNc2nc3cnc(-c4c(C)ncnc4C4CC4)nc3n([C@@H](C)C3CC3)c2=O)nc1
 | 23 |  | CCS(=O)(=O)c1ccc(CNc2nc3cnc(-c4c(C)ncnc4C4CC4)nc3n([C@@H](C)C3CC3)c2=O)nc1
71 | 16 |  | CCS(=O)(=O)c1ccc(CNc2nc3cnc(-c4c(C)ncnc4C4CC4)nc3n(C(C)C)c2=O)nc1
90 | 34 |  | CCS(=O)(=O)c1ccc(CNC(=O)N2CC(C)(C)c3nc(-c4c(OC)ncnc4C4CC4)ccc32)cc1
